According to patent US8227240B2, “Systems for screening pharmaceutical chemicals” (The Washington University, priority 2001, dated 2012):

How the values were obtained:
[1] = tested on: actin cytoskeletons in mono-layer cell cultures; assay: Confocal microscopy of actin cytoskeletons stained with Rhodamine phalloidin; type: cell-based; conditions: CD 2 nM
[2] = tested on: reconstituted tissue membrane (fibroblast non-muscle myosin / actin cytoskeleton); assay: Tissue indentation method in 96-well plate: peak force of reconstituted tissue membrane; type: cell-based
Protocol: A triangular frame made of stainless steel wire 1 mm in diameter was employed as a scaffold on which the reconstituted tissue formed. The wells are slightly tapered toward the bottom and the frame is securely positioned 1 mm above the bottom of the well (FIG. 11a). The non-polymerized solution of collagen containing cells and appropriate cell culture media as described above was poured into the wells filling the wells to a level 3 mm above the bottom (FIG. 11b). The 96-well plate was incubated at 37° C. with 5% CO2. During the incubation, cells compressed collagen matrices by squeezing liquid out from the porous collagen matrix. Without the wire frame, the reconstituted tissue contracted into a small sphere floating in the tissue culture medium. It was discovered that by utilizing different shapes of wire frames the collagen matrix was compressed into shapes corresponding to shapes of the frames. Other wire frame shapes, such as one shown in FIG. 11b, produced tissue strips with different widths. A porous support material such as a Velcro fastener was not required to facilitate tissue adhesion even to the non-porous stainless steel surfaces of a wire. The collagen was compressed to a greater extent at the outer portion of the membrane or strip. Therefore, this outer portion of the membrane can withstand stress produced by the cells and prevented it from ripping the membrane off the wire frame.
To assess the response of the tissue model samples to test agents, the resistance of the tissue samples to stretch is measured by a probe coupled to a force transducer. The stiffness of the tissue is related to the force required to move the probe by a specified amount once the probe contacts the tissue. […]
The stage is raised until the probe tip touches the membrane or strip of reconstituted tissue. Contact of the tip with the sample is detected by a sudden increase in the force registered by the isometric force transducer. […] During this trajectory the tip comes in contact with the tissue specimen and stretches it as the force is continually recorded by a data recorder. […]

## C=C1[C@@H](C)[C@H]2[C@H](Cc3ccccc3)NC(=O)[C@]23[C@H](OC(C)=O)/C=C/[C@@](C)(O)C(=O)[C@@H](C)C/C=C/[C@H]3[C@@H]1O [CD, cytochalasin D]
[1]
  effect on actin cytoskeletons by confocal microscopy: no effect was observed
[2]; 40 nM CD, nearly 15 min after addition, after 20% FBS
  decrease of peak force from its initial level: about 40%
[2]; 2 μM CD, 20 min after addition
  peak force: further reduction
[2]; 96-well plate, after 10% FBS
  reduction of the height of the force peaks: 60%
